# From US20170129903A1, “COMPOUNDS COMPRISING 1,1a,2,5a-TETRAHYDROSPIRO[INDOLE-3,2a-PYRROLE]-2,5a-DIONE SYSTEM AS INHIBITORS P53-MDM2 PROTEIN-PROTEIN INTERACTION” (ADAMED SP. Z O.O., priority 2014, published 2017)
# Tests used:
# [1] = tested on: SJSA-1 osteosarcoma cell line; assay: MTT cell viability assay; assay type: cell-based; details: Homo sapiens, SJSA-1, 72 h, 72 h incubation, average of 2-5 experiments
# How it was run: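 Cells exposed to serial compound dilutions for 72 h, then MTT (0.5 mg/ml final) added for 4 h; formazan dissolved in DMSO. IC50 from dose-response curves, 2-5 independent repeats.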
# SJSA-1 xenograft = assay: In vivo efficacy in the SJSA-1 xenograft model in mice; details: compound 93 100 mg/kg p.o. q1dx14 vs control NaCl 0.9%, female Crl:SHO-Prkdc scid Hr hr mice, during and at the end of study
# Method: The experiment was conducted on female mice from the Crl:SHO-Prkdc^scidHr^hr strain. Mice were inoculated subcutaneously in the right flank with cancer cell line SJSA-1 in the amount of […] cells suspended in 100 μl HBSS: Matrigel matrix in a 3:1 ratio per mouse. On the 16th day after inoculation mice were divided into groups, so that in each group the mean tumor volume was similar and averaged around 160 mm^3. Two experiment groups were selected, each consisting of 5 mice: Control NaCl 0.9% and compound 93. The compound 93 was dissolved in 15% PEG400, 10% Cremophore EL, 75% H2O.
# Mice used in the experiment were administered per os (p.o.) with compounds or NaCl 0.9% in a q1dx14 schedule (14 doses, daily). During the course of experiment mice were weighed before each administration,—twice/thrice a week. Animal welfare was monitored daily.
# Change in tumor volume was monitored twice/thrice a week starting from the first day of administration. Tumor volume was calculated based on its length and width measured with an electronic calipers:
# V[mm^3]=d^2×D/2 • where d—width, D—length.
# The tumor volume in the compound 93 group was measured up to 68 days after inoculation (39 days after last administration). Results of the experiment were expressed as mean values of tumor volume ±SEM. All calculations and graphs were performed using GraphPad Prism 5 software. […]
# [2] = target: T1, p53-Mdm2 interaction (N-terminal domain of Mdm2 protein, amino acids 1-111) (Homo sapiens, UniProt Q00987); assay: Fluorescence polarization (FP) binding assay of p53-Mdm2 interaction; details: FP assay, 130 nM Mdm2, FAM-labelled p53 peptide; Ki transformed from IC50 using Kenakin equation
# T1 construct: N-terminal domain of Mdm2 protein (amino acids 1-111)
# T1 sequence (Q00987 1-111): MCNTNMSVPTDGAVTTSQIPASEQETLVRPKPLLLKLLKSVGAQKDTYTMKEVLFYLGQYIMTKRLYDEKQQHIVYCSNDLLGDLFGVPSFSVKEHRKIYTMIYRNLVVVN
# How it was run: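 N-terminal Mdm2 (aa 1-111) at 130 nM preincubated 15 min with compound (5% DMSO) in PBS, 0.1% CHAPS, 5 mM DTT, then […] FAM-labelled p53 peptide added. Polarization read after 90 min at room temperature (ex 470/em 520 nm). IC50 converted to Ki by Kenakin equation.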
Structure (SMILES),IC50 [1] [µM],difference in body weight or welfare between experiment groups (SJSA-1 xenograft),Ki [2] [nM]
"COc1ccc(-n2cc3c(c2C(C)C)C2(C(=O)Nc4cc(Cl)ccc42)N(c2cc(Cl)ccc2C)C3=O)c(OC)c1 (stereo not shown) [Compound 93, 6-chloro-2′-(5-chloro-2-methylphenyl)-5′-(2,4-dimethoxyphenyl)-6′-(propan-2-yl)-1,2,3′,5′-tetrahydro-2′H-spiro[indole-3,1′-pyrrolo[3,4-c]pyrrole]-2,3′-dione]",0.42,No significant difference,3.8
"COC(=O)/C=C/COc1ccc(Cl)cc1N1C(=O)c2nn(-c3ccccc3OC)c(C(C)C)c2C12C(=O)Nc1cc(Cl)ccc12 (stereo not shown) [Compound 62, methyl (2E)-4-{4-chloro-2-[6-chloro-2′-(2-methoxyphenyl)-2,6′-dioxo-3′-(propan-2-yl)-1,2,5′,6′-tetrahydro-2′H-spiro[indole-3,4′-pyrrolo[3,4-c]pyrazole]-5′-yl]phenoxy}but-2-enoate]",2.23,–,11
"CC1(c2[nH]nc3c2C2(C(=O)Nc4cc(Cl)ccc42)N(c2cccc(Cl)c2)C3=O)CC1 (stereo not shown) [Compound 19, 6-chloro-5′-(3-chlorophenyl)-3′-(1-methylcyclopropyl)-1,2,5′,6′-tetrahydro-2′H-spiro[indole-3,4′-pyrrolo[3,4-c]pyrazole]-2,6′-dione]",22.3,–,64
"COc1ccccc1-n1cc2c(c1C(C)C)C1(C(=O)Nc3cc(Cl)ccc31)N(c1cc(Cl)ccc1[N+](=O)[O-])C2=O (stereo not shown) [Compound 90, 6-chloro-2′-(5-chloro-2-nitrophenyl)-5′-(2-methoxyphenyl)-6′-(propan-2-yl)-1,2,3′,5′-tetrahydro-2′H-spiro[indole-3,1′-pyrrolo [3,4-c]pyrrole]-2,3′-dione]",6.19,–,33
"CS(=O)(=O)OC1=C(c2ccccc2)C2(C(=O)Nc3cc(Cl)ccc32)N(c2cccc(Cl)c2)C1=O (stereo not shown) [Compound 52, 6-chloro-1′-(3-chlorophenyl)-2,5′-dioxo-3′-phenyl-1,1′,2,5′-tetrahydrospiro[indole-3,2′-pyrrole]-4′-yl methanesulfonate]",39.6,–,800
"COc1ccccc1-n1cc2c(c1C(C)C)C1(C(=O)Nc3cc(Cl)ccc31)N(c1cc(Cl)ccc1NS(C)(=O)=O)C2=O (stereo not shown) [Compound 92, N-{4-chloro-2-[6-chloro-5′-(2-methoxy-phenyl)-2,3′-dioxo-6′-(propan-2-yl)-1,2,3′,5′-tetrahydro-2′H-spiro[indole-3,1′-pyrrolo[3,4-c]pyrrole]-2′-yl]phenyl} methanesulfonamide]",1.07,–,6.6
"COc1ccccc1-n1nc2c(c1C(C)C)C1(C(=O)Nc3cc(Cl)ccc31)N(c1cc(Cl)ccc1OCCS(C)(=O)=O)C2=O (stereo not shown) [Compound 73, 6-chloro-5′-[5-chloro-2-(2-methanesulfonylethoxy)phenyl]-2′-(2-methoxyphenyl)-3′-(propan-2-yl)-1,2,5′,6′-tetrahydro-2′H-spiro[indole-3,4′-pyrrolo [3,4-c]pyrazole]-2,6′-dione]",11.4,–,42
"COc1ccccc1-n1nc2c(c1C(C)C)C1(C(=O)Nc3cc(Cl)ccc31)N(c1cncc(Cl)c1)C2=O (stereo not shown) [Compound 72, 6-chloro-5′-(5-chloropyridin-3-yl)-2′-(2-methoxyphenyl)-3′-(propan-2-yl)-1,2,5′,6′-tetrahydro-2′H-spiro[indole-3,4′-pyrrolo [3,4-c]pyrazole]-2,6′-dione]",0.89,–,5.6
"CCN(CC)S(=O)(=O)c1ccc(OC)c(-n2cc3c(c2C(C)C)C2(C(=O)Nc4cc(Cl)ccc42)N(c2cc(Cl)ccc2C)C3=O)c1 (stereo not shown) [Compound 98, 3-[6-chloro-2′-(5-chloro-2-methylphenyl)-2,3′-dioxo-6′-(propan-2-yl)-1,2,3′,5′-tetrahydro-2′H-spiro[indole-3,1′-pyrrolo [3,4-c]pyrrole]-5′-yl]-N,N-diethyl-4-methoxybenzene-1-sulfonamide]",0.38,–,4.6
"COc1ccc(N)cc1-n1cc2c(c1C(C)C)[C@@]1(C(=O)Nc3cc(Cl)ccc31)N(c1cc(Cl)ccc1C)C2=O [Compound 109, (3S)-5′-(5-amino-2-methoxyphenyl)-6-chloro-2′-(5-chloro-2-methylphenyl)-6′-(propan-2-yl)-1,2,3′,5′-tetrahydro-2′H-spiro[indole-3,1′-pyrrolo[3,4-c]pyrrole]-2,3′-dione]",0.07,–,1.3
"Cc1ccc(Cl)cc1N1C(=O)c2n[nH]c(C(C)C)c2C12C(=O)Nc1cc(Cl)ccc12 (stereo not shown) [Compound 23, 6-chloro-5′-(5-chloro-2-methylphenyl)-3′-(propan-2-yl)-1,2,5′,6′-tetrahydro-2′H-spiro[indole-3,4′-pyrrolo[3,4-c]pyrazole]-2,6′-dione]",10.2,–,20
"CN(C)C(=O)C1CCCC1Cn1nc2c(c1C1(C)CC1)C1(C(=O)Nc3cc(Cl)ccc31)N(c1cccc(Cl)c1)C2=O (stereo not shown) [Compound 29, 2-[6-chloro-5′-(3-chlorophenyl)-3′-(1-methylcyclopropyl)-2,6′-dioxo-1,2,5′,6′-tetrahydro-2′H-spiro[indole-3,4′-pyrrolo [3,4-c]pyrazole]-2′-ylmethyl]-N,N-dimethylcyclopentane-1-carboxamide]",48.8,–,358
